{"source": "patent US12448393B2", "about": "“Use of novel compound, for preventing, improving or treating amyotrophic lateral sclerosis” (PRG S&TECH INC., priority 2019, dated 2025)", "key": {"[1]": {"biological_target": "T1, SOD1-G93A (Homo sapiens, UniProt P00441, G94A)", "T1 construct": "GST (TEV site) (N); made in house; host or cells: Escherichia coli BL21 (DE3)", "T1 sequence (P00441 whole entry G94A)": "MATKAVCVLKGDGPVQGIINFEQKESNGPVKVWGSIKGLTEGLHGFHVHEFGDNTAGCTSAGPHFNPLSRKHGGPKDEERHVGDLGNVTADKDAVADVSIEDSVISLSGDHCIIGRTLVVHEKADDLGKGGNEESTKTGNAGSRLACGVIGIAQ", "experiment": "Dot blot analysis of recombinant SOD1 reacted with compound", "assay_type": "biochemical", "settings": "FIG. 5F", "procedure": "To prepare recombinant proteins, human SOD1 (WT, A4V, G37R, G85R, G93A) was added to EcoRI and HindIII sites of pGEX-TEV vector, an improved vector made by adding a TEV protease cleavage site to pGEX-4T1 (Invitrogen). The recombinant proteins were expressed as GST-fusion proteins in Escherichia coli (E. coli) strain BL21 (DE3). The proteins were purified by glutathione-affinity chromatography.\n(§1) To detect misfolded SOD1 expression, cells transfected with SOD1 vector were treated with the compounds for 24 hours. After reaction, the cells were lysed with a lysis buffer without surfactant, and then cell lysate was fixed on a nitrocellulose membrane using a Bio-Dot SF Microfiltration apparatus (Bio-Rad Laboratories, Hercules, CA). In the case of peptide reaction, SOD1 recombinant proteins were reacted with the compounds for 1 hour, and then samples were loaded onto membrane. Each membrane was washed with TBS and blocked with 3% skim milk to prevent non specific reaction. After blocking, the membrane was reacted with the misfolded SOD1 or Actin antibody (1:8,000 in TBST including 1% skim milk) for 30 minutes, and then with a secondary antibody (goat anti-mouse IgG-horseradish peroxidase, 1:50,000 in 1% skim milk blocking buffer) for 30 minutes. Antibodies reacted to proteins were detected by ECL and X-ray film exposure. Actin was used as a loading control."}, "[2]": {"test_system": "SOD1^G93A-Tg mice", "experiment": "In vivo drug treatment of ALS model mice (grip strength, behaviour, histology, survival)", "design": "species or system mouse", "procedure": "An experiment was performed in a facility approved by the Association for Laboratory Animal Care Assessment and Accreditation in accordance with the animal policy approved by Busan National University. B6SJL-Tg (SOD1^G93A) mice were purchased from Jackson Laboratory (Stock No: 002726). All mice were maintained under temperature and light-controlled conditions (20˜23° C., light-dark cycle 12 hr-12 hr) and were provided with sterile food and water.\nVehicle (DMSO) and SLC-B036 (10 mg/kg, 20 mg/kg) were administered to 12-week-old or 14-week-old SOD1^G93A mice via intraperitoneal injection twice weekly for 6 weeks. Control mice were treated under the same conditions. For histological analysis, mice were sacrificed at 18 weeks. After dissection of mice, spinal cord was fixed with 4% paraformaldehyde for 48 hours according to basic tissue processing procedures, and embedded in a paraffin block. An embedded tissue (cervical region of the spinal cord) was cut into 5 μm with a Leica microtome, and transferred to an adhesive-coated slide (Marienfeld laboratory glassware, Germany). After deparaffinization and rehydration, the slide was stained with hematoxylin and eosin to determine the number of spinal nerves.\nFor behavioral experiment, grip strength was checked every 2 weeks using a grip strength meter. The mice were allowed to grasp a tension bar with their forelimbs, and then their tails were slowly pulled until they released the bar. To observe motility, respiration, and quadriplegia of the mice, image analysis was performed at the end of administration (18-20 weeks)."}, "[3]": {"experiment": "Pharmacokinetics (PK) analysis", "assay_type": "in vivo", "settings": "FIG. 8E"}, "[4]": {"test_system": "misfolded SOD1", "experiment": "Dot blot analysis of misfolded SOD1 in transfected cell lysates", "assay_type": "cell-based, human", "settings": "lysates of cells transfected with WT- or mutant SOD1; FIG. 5D", "procedure": "as §1"}, "[5]": {"biological_target": "misfolded SOD1 (Homo sapiens, UniProt P00441, G94A)", "sequence (P00441 2-154 G94A)": "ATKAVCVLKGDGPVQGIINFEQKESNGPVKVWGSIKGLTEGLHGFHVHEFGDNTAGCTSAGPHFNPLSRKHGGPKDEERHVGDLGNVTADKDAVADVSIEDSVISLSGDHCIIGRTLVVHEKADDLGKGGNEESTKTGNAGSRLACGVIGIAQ", "experiment": "Dot blot analysis of misfolded SOD1 in transfected cell lysates", "assay_type": "cell-based", "settings": "G93A-transfected cell lysates; FIG. 5E", "procedure": "as §1"}, "[6]": {"test_system": "SOD1^G93A-Tg mice", "experiment": "In vivo drug treatment of ALS model mice (grip strength, behaviour, histology, survival)", "design": "species or system mouse", "settings": "dosing from 14 weeks, observed at 17-weeks of age; FIGS. 7C and 8C"}}, "note": "Entries after “also recorded” stand apart in the source; their conditions may differ."}
{"compound": "COc1cc(/C=C/C(=O)O[C@H]2Cc3cc4ccc(=O)oc4cc3OC2(C)C)ccc1O", "note": "[PRG-A-01, (S)-8,8-dimethyl-2-oxo-7,8-dihydro-2H,6H-pyrano[3,2-g]chromen-7-yl (E)-3-(4-hydroxy-3-methoxyphenyl) acrylate]", "values": [{"measurement": "recognition of mutant SOD1 by misfolding-specific antibody", "setting": "[1]", "value": "inhibits misfolding of mutant SOD1; also recorded: antibody specific for misfolding did not recognize mutant SOD1"}, {"measurement": "dose dependence of effect on grip strength", "setting": "[2]; 20 mg/kg more effective than 10 mg/kg, FIGS. 8A and 8B", "value": "dose-dependent effect"}, {"measurement": "effects in ALS model mice", "setting": "[2]; FIGS. 11A and 11B, summary statements", "value": "protective effect against muscle weakness and movement disorder"}, {"measurement": "lifespan extension", "setting": "[2]; Kaplan-Meier survival, FIG. 8D", "value": 10, "unit": "days"}, {"measurement": "In vivo", "setting": "[2]; Table 1, ALS model mice", "value": "Effect ○"}, {"measurement": "muscle strength compared to wild-type mice", "setting": "[2]; i.p. twice a week, administration from 12 weeks of age, grip strength, FIG. 7B", "value": "about 70%"}, {"measurement": "viability of cervical spinal nerves, histological analysis", "setting": "[2]; spinal cord, H&E, FIG. 7D", "value": "intraspinal nerves were maintained and high"}, {"measurement": "muscle function, late treatment", "setting": "[2]; starting at 14 weeks of age, forelimb grip strength, FIGS. 8A and 8B", "value": "good effect on muscle function"}, {"measurement": "time to disappearance in body / blood", "setting": "[3]", "value": "≤ 30", "unit": "min"}, {"measurement": "misfolded SOD1, dot blot", "setting": "[4]", "value": "reduces misfolding formation of SOD1; also recorded: band intensity clearly decreased"}, {"measurement": "misfolded SOD1, dot blot, according to doses", "setting": "[5]", "value": "dose-dependent decrease in misfolded SOD1"}, {"measurement": "motor capacity, behavioral observation", "setting": "[6]", "value": "still had motor capacity"}]}
